pEC50: −log10 of the molar value.
Tests used:
Format in all cases: cell-based
IRF = assay: In vitro induction of IRF in THP1 dual cells (Lucia reporter, ISG54 promoter)
Procedure: (§1) Example 2. In Vitro Induction of IRF and NF-κβ in THP1 Cells
(§2) THP1 dual cells grown in complete media were treated with various concentrations of a compound of the present disclosure or DMSO control. Dual cells carry both secreted embryonic alkaline phosphatase (SEAP) reporter gene under the control of an IFN-β minimal promoter fused to five copies of the NF-kB consensus transcriptional response element to measure NF-kB activity and Lucia reporter gene under the control of an ISG54 minimal promoter to measure IRF activity. After 20 h incubation, IRF activity was assessed using QUANTI-luc to measure levels of Lucia and NF-kB activity was determined by measure SEAP levels at 620-655 nm. % induction was calculated from fold change in luminescence/absorbance compared to DMSO treated sample. […] EC50 values were generated by curve fit in Xlfit.
(§3) Cells grown in complete media were treated with various concentrations of a compound of the disclosure or DMSO control. Dual cells carry both secreted embryonic alkaline phosphatase (SEAP) reporter gene under the control of an IFN-β minimal promoter fused to five copies of the NF-kB consensus transcriptional response element to measure NF-kB activity and Lucia reporter gene under the control of an ISG54 minimal promoter to measure IRF activity. After 20 h incubation, IRF activity was assessed using QUANTI-luc to measure levels of Lucia and NF-kB activity was determined by measure SEAP levels at 620-655 nm. % induction was calculated from fold change in luminescence/absorbance compared to DMSO treated sample. EC50 values are generated by curve fit in Xlfit.

NF-κβ = assay: In vitro induction of NF-κβ in THP1 dual cells (SEAP reporter)
Procedure: as §1, §2, §3

STING KO cells = assay: IRF and NF-kB reporter activity in STING KO cells; settings: 20 hours
Procedure: (§4) FIG. 21 depicts cells stably expressing both or either one of the reporters to measure IRF and NF-kB activity were treated with a range of concentrations of compound 1 or DMSO control for 20 hours. IRF activity was assessed using QUANTI-luc to measure levels of Lucia and NF-kB activity was determined by measure SEAP levels at 620-655 nm. % induction was calculated from fold change in luminescence/absorbance compared to DMSO treated sample. EC50 values are generated by curve fit in Xlfit.
as §4, with “22” for “21”, “2” for “1”
as §4, with “24” for “21”, “3” for “1”
as §4, with “27” for “21”, “4” for “1”
as §3

[1] = test system: RAW-Lucia-ISG-STING KO cells; assay: IRF-type I IFN secreted luciferase in RAW-Lucia-ISG-STING KO cells; settings: compound alone, 19 hours
Procedure: FIG. 4 depicts RAW-Lucia-ISG-WT and RAW-Lucia-ISG-STING KO cells were stimulated with compound 2 or compound 4, alone for 19 hours. Activity of secreted luciferase (IRF-type I IFN activity) in cell culture supernatant was measured using Invivogen's Quanti-luc. Data is shown as fold induction over DMSO treated cells (mean±standard deviation of triplicate wells per stimulant). EC50 values were calculated using XLfit.

wild type STING = target: T1, wild type STING (Homo sapiens, UniProt Q86WV6, H232R); assay: IRF/NF-kB reporter cells, wild type STING; settings: 20 hours
T1 construct: expressed in transfected cells; host or cells: THP1-Dual-KI-STING-R232 (made from THP-Dual-STING KO cells)
T1 sequence (Q86WV6 whole entry H232R): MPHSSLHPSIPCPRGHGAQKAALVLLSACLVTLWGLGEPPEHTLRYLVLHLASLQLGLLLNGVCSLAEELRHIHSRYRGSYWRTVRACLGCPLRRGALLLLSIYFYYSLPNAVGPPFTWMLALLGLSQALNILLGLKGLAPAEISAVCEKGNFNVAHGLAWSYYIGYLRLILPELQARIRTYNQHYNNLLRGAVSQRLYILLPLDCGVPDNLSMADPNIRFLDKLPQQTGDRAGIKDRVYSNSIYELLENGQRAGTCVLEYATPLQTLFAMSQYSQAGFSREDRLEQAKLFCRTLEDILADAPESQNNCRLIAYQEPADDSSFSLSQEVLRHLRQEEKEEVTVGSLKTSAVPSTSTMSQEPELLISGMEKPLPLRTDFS
Procedure: as §4, with “22” for “21”, “2” for “1”
as §4, with “24” for “21”, “3” for “1”
as §4, with “27” for “21”, “4” for “1”
(§5) Cells grown in complete media were treated with various concentrations of a compound of the disclosure or DMSO control. […] After 20 h incubation, IRF activity was assessed using QUANTI-luc to measure levels of Lucia and NF-kB activity was determined by measure SEAP levels at 620-655 nm. % induction was calculated from fold change in luminescence/absorbance compared to DMSO treated sample. […]

[2] = target: T2, R71H-G230A-R293Q (HAQ) variant of hSTING (Homo sapiens, UniProt Q86WV6, G230A/H232R/R293Q/R71H); assay: IRF/NF-kB reporter cells, STING HAQ variant; settings: 20 hours
T2 construct: THP1-Dual-WT cells express STING-HAQ variant; endogenous in cells; host or cells: THP1-Dual-WT cells
T2 sequence (Q86WV6 whole entry R71H/G230A/H232R/R293Q): as the sequence (Q86WV6 whole entry H232R) above, with R71H, G230A, R293Q counted along it
Procedure: as §4, with “22” for “21”, “2” for “1”
as §4, with “24” for “21”, “3” for “1”
as §4, with “27” for “21”, “4” for “1”
as §5

wt-mSTING = target: T3, wt-mSTING (Mus musculus, UniProt Q3TBT3); assay: IRF/NF-kB reporter cells, wt-mSTING; settings: 20 hours
T3 construct: endogenous in cells
T3 sequence (Q3TBT3 1-378): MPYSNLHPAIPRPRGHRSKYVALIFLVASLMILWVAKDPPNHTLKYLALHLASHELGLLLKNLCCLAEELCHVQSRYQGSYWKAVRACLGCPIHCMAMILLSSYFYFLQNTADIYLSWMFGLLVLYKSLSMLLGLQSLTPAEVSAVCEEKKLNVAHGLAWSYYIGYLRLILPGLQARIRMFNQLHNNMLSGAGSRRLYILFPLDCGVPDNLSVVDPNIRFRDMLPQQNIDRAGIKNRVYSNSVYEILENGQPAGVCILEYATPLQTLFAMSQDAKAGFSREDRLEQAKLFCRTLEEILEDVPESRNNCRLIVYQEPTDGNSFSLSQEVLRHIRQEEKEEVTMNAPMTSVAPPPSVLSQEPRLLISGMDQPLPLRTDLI
Procedure: as §4, with “22” for “21”, “2” for “1”
as §4, with “24” for “21”, “3” for “1”
as §4, with “27” for “21”, “4” for “1”
as §5

[3] = test system: mouse bone marrow derived dendritic cells (DCs) and macrophages; assay: ISG gene expression (Taqman) in mouse bone marrow derived dendritic cells and macrophages; settings: 20 hours
Procedure: FIG. 23 depicts cryopreserved mouse bone marrow derived dendritic cells (DCs) and macrophages treated with a range of concentrations of compound 2 or DMSO control for 20 hours. Cell pellets were harvested to collect total RNA. The gene expression levels of ISGs were measured by Taqman Assays.

[4] = Homo sapiens, THP-1, 20 h incubation

Row | Structure (SMILES) | pEC50 (IRF; [4]) | pEC50 (NF-κβ; [4]) | IRF activity in STING KO cells (STING KO cells) | NF-κβ in STING KO cells (STING KO cells) | STING dependence of activity (STING KO cells) | pEC50 (IRF; 20 h incubation) | pEC50 (NF-κβ; 20 h incubation) | IRF activity in STING KO cells [1] | activity against wild type STING (wild type STING) | activity against R71H-G230A-R293Q (HAQ) variant of hSTING [2] | activity against wt-mSTING (wt-mSTING) | ISG expression [3]
1 | Nc1ncnc2c1ncn2[C@@H]1O[C@@H]2COP(=O)(O)O[C@H]3[C@@H](F)[C@H](n4ccc(=O)[nH]c4=O)O[C@@H]3COP(=O)(O)O[C@@H]1[C@@H]2F [Compound 1] | < 5.70 | < 5.70 | did not induce | did not induce | possess STING dependent activity |  |  |  |  |  |  | 
2 | CCCCCCCCCCOc1ccc(C(=O)Oc2ccc(CSP3(=O)OC[C@H]4O[C@@H](n5cnc6c(N)ncnc65)[C@H](OP(=O)(O)OC[C@H]5O[C@@H](n6ccc(=O)[nH]c6=O)[C@H](F)[C@@H]5O3)[C@@H]4F)cc2)cc1 (some centres unmarked) [Compound 2] |  |  | did not induce | did not induce |  | > 7.30 | 5.70 to 6.00 | Neither compound induced IRF activity | possess activity | possess activity | possess activity | induces ISG expression
